The text below walks through data of PubChem BioAssay AID2180 (Vanderbilt High Throughput Screening Facility, 2009).

The target of the assay is Metabotropic glutamate receptor 4 (Homo sapiens) (UniProt Q14833). In words: PubChem AID 2180. Particulars: CHO hmGluR4/Gqi5, calcium mobilization, glutamate CRC fold-shift.

SMILES strings stand for the structures. Calls of active or inactive are those of the source. The rule behind the calls is not given here.

Chain of Metabotropic glutamate receptor 4 (Homo sapiens) (Q14833 whole entry, looked up): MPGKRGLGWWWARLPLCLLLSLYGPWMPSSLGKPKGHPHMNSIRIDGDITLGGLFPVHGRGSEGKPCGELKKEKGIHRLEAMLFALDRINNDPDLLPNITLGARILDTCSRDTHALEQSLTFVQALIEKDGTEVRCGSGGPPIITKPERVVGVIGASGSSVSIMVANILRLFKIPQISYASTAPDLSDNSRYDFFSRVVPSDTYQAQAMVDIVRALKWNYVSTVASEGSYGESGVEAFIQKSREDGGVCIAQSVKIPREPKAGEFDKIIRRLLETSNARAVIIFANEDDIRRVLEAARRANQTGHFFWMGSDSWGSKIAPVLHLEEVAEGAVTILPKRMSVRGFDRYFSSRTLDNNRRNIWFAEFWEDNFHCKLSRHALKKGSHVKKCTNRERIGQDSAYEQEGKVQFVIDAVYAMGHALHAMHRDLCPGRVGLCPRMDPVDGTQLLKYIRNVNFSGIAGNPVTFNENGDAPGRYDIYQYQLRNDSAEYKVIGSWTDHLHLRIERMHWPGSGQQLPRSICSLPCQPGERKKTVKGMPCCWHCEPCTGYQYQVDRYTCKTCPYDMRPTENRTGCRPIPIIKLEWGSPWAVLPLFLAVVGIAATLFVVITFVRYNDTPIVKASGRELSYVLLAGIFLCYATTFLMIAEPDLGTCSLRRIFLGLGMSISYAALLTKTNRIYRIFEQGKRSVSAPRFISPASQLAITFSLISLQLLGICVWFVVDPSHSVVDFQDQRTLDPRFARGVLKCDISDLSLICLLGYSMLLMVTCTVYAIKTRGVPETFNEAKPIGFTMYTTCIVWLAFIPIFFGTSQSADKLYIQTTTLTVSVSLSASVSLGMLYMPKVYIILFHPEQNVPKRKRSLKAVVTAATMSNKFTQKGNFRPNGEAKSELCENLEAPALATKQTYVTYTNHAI

As to `COc1cc(NC(=O)c2ccccn2)ccc1Cl`, the Potency is 381 nM.

For the molecule `COc1cc(NC(=O)c2ccccn2)ccc1F`, the Potency was 604 nM.

In the case of `COc1ccc(NC(=O)c2ccccn2)cc1Cl`, the Potency is 1600 nM. Next, `O=C(Nc1ccc(F)c(C(F)(F)F)c1)c1ccccn1`: 5160 nM (inactive); `O=C(Nc1ccc(Cl)c(C(F)(F)F)c1)c1ccccn1`: 6060 nM (inactive); `COc1cc(NC(=O)c2ccccn2)ccc1C`: 641 nM.

Turning to `O=C(Nc1cccc(Cl)c1)c1ccccn1`, the Potency is 601 nM.
